Measurements as given in patent US20100056508A1, “AMINE DERIVATIVES AND THEIR USE IN BETA-2-ADRENORECEPTOR MEDIATED DISEASES” (ASTRAZENECA AB, priority 2006, published 2010).
Where a name gives a salt, the structure may show the parent alone.

How the values were obtained:
[1] = molecular target: T1, recombinant human α1D receptor (Homo sapiens, UniProt P25100); assay: Adrenergic α1D selectivity assay, [3H]-prazosin binding to membranes; conditions: inhibition of [3H]-prazosin binding, HEK cell membranes, read-out: α1 bind pIC50 (converted)
T1 construct: expressed in transfected cells; host or cells: human embryonic kidney 293 cells (HEK93 [sic]), membranes
T1 sequence (P25100 1-572): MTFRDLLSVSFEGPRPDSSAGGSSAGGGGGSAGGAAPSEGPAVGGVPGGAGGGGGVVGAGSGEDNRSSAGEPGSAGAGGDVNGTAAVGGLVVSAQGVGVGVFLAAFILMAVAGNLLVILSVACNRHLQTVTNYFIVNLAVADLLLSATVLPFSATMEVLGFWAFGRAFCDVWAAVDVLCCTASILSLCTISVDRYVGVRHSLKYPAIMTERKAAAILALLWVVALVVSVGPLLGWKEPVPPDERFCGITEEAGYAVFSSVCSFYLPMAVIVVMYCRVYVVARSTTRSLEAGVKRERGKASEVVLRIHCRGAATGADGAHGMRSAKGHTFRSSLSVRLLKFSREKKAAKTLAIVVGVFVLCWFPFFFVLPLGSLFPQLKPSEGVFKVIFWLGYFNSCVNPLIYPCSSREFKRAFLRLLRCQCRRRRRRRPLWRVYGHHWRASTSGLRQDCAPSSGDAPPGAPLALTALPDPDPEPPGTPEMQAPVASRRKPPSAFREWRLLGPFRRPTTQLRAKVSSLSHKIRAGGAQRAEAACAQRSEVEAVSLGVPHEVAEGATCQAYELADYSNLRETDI
Protocol: Membranes were prepared from human embryonic kidney 293 ([…]) cells expressing recombinant human α1D receptor. These were diluted in Assay Buffer (50 mM HEPES, 1 mM EDTA, pH 7.4) to provide a final concentration of membranes that gave a clear window between maximum and minimum specific binding.
Assays were performed in U-bottomed 96-well polypropylene plates. 10 μL [^3H]-prazosin (0.3 nM final concentration) and […] of test compound (10× final concentration) were added to each test well. For each assay plate 8 replicates were obtained for [^3H]-prazosin binding in the presence of 10 μL vehicle (10% (v/v) DMSO in Assay Buffer; defining maximum binding) or 10 μL BMY7378 (10 μM final concentration; defining non-specific binding (NSB)). Membranes were then added to achieve a final volume of 100 μL. The plates were incubated for 2 hours at room temperature and then filtered onto PEI coated GF/B filter plates, pre-soaked for 1 hour in Assay Buffer, using a 96-well plate Tomtec cell harvester. Five washes with 250 μL wash buffer (50 mM HEPES, 1 mM EDTA, pH 7.4) were performed at 4° C. to remove unbound radioactivity. The plates were dried then sealed from underneath using Packard plate sealers and MicroScint-O (50 μL) was added to each well. The plates were sealed (TopSeal A) and filter-bound radioactivity was measured with a scintillation counter (TopCount, Packard BioScience) using a 3-minute counting protocol.
(§1) Total specific binding (B0) was determined by subtracting the mean NSB from the mean maximum binding. NSB values were also subtracted from values from all other wells. […] Data was fitted to a four parameter logistic equation to determine the compound potency, which was expressed as pIC50 (negative log molar concentration inducing 50% inhibition of [^3H]-prazosin binding).

[2] = molecular target: T2, recombinant human Dopamine Subtype D2s receptors (Homo sapiens, UniProt P14416); assay: Dopamine D2 selectivity assay, [3H]-spiperone binding to membranes; conditions: inhibition of [3H]-spiperone binding, read-out: D2 bind pIC50 (converted)
T2 construct: purchased Perkin Elmer
T2 sequence (P14416 1-414 isoform P14416-2): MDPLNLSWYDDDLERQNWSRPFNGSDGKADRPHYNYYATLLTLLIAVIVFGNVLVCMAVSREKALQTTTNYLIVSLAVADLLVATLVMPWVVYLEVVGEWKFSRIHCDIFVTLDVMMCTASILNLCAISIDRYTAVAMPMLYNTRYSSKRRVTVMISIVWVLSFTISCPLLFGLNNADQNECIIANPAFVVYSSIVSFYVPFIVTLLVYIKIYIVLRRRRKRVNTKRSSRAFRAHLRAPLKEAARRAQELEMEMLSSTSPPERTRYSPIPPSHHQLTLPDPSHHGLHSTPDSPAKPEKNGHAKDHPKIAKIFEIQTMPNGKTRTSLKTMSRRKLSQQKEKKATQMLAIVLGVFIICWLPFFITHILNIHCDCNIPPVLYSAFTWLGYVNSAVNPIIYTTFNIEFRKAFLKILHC
Protocol: Membranes containing recombinant human Dopamine Subtype D2s receptors were obtained from Perkin Elmer. These were diluted in Assay Buffer (50 mM HEPES, 1 mM EDTA, 120 mM NaCl, 0.1% gelatin, pH 7.4) to provide a final concentration of membranes that gave a clear window between maximum and minimum specific binding.
Assays were performed in U-bottomed 96-well polypropylene plates. 30 μL [^3H]-spiperone (0.16 nM final concentration) and 30 μL of test compound (10× final concentration) were added to each test well. For each assay plate 8 replicates were obtained for [^3H]-spiperone binding in the presence of 30 μL vehicle (10% (v/v) DMSO in Assay Buffer; defining maximum binding) or 30 μL Haloperidol (10 μM final concentration; defining non-specific binding (NSB)). Membranes were then added to achieve a final volume of 300 μL. The plates were incubated for 2 hours at room temperature and then filtered onto PEI coated GF/B filter plates, pre-soaked for 1 hour in Assay Buffer, using a 96-well plate Tomtec cell harvester. Five washes with 250 μL wash buffer (50 mM HEPES, 1 mM EDTA, 120 mM NaCl, pH 7.4) were performed at 4° C. to remove unbound radioactivity. The plates were dried then sealed from underneath using Packard plate sealers and MicroScint-0 (50 μL) was added to each well. The plates were sealed (TopSeal A) and filter-bound radioactivity was measured with a scintillation counter (TopCount, Packard BioScience) using a 3-minute counting protocol.
as §1, with “[^3H]-spiperone” for “[^3H]-prazosin”

Adrenergic β2 = molecular target: T3, Adrenergic β2 (Homo sapiens, UniProt P07550); assay: Adrenergic β2 mediated cAMP production in H292 cells (AlphaScreen cAMP detection); assay type: cell-based; parameters: key to β2 Int Act: fraction of formoterol maximum activity (formoterol = 1); conditions: for β2 Int Act: Intrinsic Activity as a fraction relative to the maximum activity determined for formoterol; for EC50: cAMP production, 60 minutes at room temperature, 300 μM rolipram, read-out: β2 pEC50 (converted)
T3 construct: Adherent H292 cells were removed from tissue culture flasks; endogenous in cells; host or cells: H292 cells
T3 sequence (P07550 whole entry): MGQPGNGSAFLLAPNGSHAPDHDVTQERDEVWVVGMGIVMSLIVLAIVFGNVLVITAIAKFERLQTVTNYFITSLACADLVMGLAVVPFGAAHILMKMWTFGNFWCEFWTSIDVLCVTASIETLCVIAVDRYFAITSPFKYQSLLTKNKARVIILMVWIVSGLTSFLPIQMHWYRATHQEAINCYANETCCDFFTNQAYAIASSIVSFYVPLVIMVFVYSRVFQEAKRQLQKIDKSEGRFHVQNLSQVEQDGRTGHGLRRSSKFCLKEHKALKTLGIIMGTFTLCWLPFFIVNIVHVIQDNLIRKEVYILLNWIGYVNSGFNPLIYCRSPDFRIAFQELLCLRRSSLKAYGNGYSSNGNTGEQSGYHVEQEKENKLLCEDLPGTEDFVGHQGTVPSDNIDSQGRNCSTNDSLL
Protocol: Adrenergic β2 Mediated cAMP Production
H292 cells were grown in 225 cm2 flasks incubator at 37° C., 5% CO2 in RPMI medium containing, 10% (v/v) FBS (foetal bovine serum) and 2 mM L-glutamine.
Adherent H292 cells were removed from tissue culture flasks by treatment with Accutase™ cell detachment solution for 15 minutes. Flasks were incubated for 15 minutes in a humidified incubator at 37° C., 5% CO2. Detached cells were re-suspended in RPMI media (containing 10% (v/v) FBS and 2 mM L-glutamine) at 1×10^6 cells per mL. 10000 cells in 100 μL were added to each well of a tissue-culture-treated 96-well plate and the cells incubated overnight in a humidified incubator at 37° C., 5% CO2. The culture media was removed and cells were washed twice with 100 μL assay buffer and replaced with 50 μL assay buffer (HBSS solution containing 10 mM HEPES pH7.4 and 5 mM glucose). Cells were rested at room temperature for 20 minutes after which time 25 μL of rolipram (1.2 mM made up in assay buffer containing 2.4% (v/v) dimethylsulphoxide) was added. Cells were incubated with rolipram for 10 minutes after which time test compounds were added and the cells were incubated for 60 minutes at room temperature. The final rolipram concentration in the assay was 300 μM and final vehicle concentration was 1.6% (v/v) dimethylsulphoxide. The reaction was stopped by removing supernatants, washing once with 100 μL assay buffer and replacing with 50 μL lysis buffer. The cell monolayer was frozen at −80° C. for 30 minutes (or overnight).
AlphaScreen™ cAMP Detection
The concentration of cAMP (cyclic adenosine monophosphate) in the cell lysate was determined using AlphaScreen™ methodology. The frozen cell plate was thawed for 20 minutes on a plate shaker then 10 μL of the cell lysate was transferred to a 96-well white plate. 40 μL of mixed AlphaScreen™ detection beads pre-incubated with biotinylated cAMP, was added to each well and the plate incubated at room temperature for 10 hours in the dark. The AlphaScreen™ signal was measured using an EnVision spectrophotometer (Perkin-Elmer Inc.) with the recommended manufacturer's settings. cAMP concentrations were determined by reference to a calibration curve determined in the same experiment using standard cAMP concentrations. Concentration response curves for agonists were constructed and data was fitted to a four parameter logistic equation to determine both the pEC50 and Intrinsic Activity. Intrinsic Activity was expressed as a fraction relative to the maximum activity determined for formoterol in each experiment.

SMILES	IC50 [1] [nM]	IC50 [2] [nM]	β2 Int Act (Adrenergic β2)	EC50 (Adrenergic β2) [nM]
Cc1cccc(CCNCCC(=O)N(CCNCCc2ccc(O)c3[nH]c(=O)ccc23)C2CCCCCC2)c1 [Example 8, N-Cycloheptyl-N-(2-(2-(8-hydroxy-2-oxo-1,2-dihydroquinolin-5-yl)ethylamino)ethyl)-3-(3-methylphenethylamino)propanamide bis(trifluoroacetate)]	100	398	0.79	6.31
C[C@H](CNCCC(=O)N(CCNCCc1ccc(O)c2[nH]c(=O)ccc12)C1CCCCCC1)c1ccccc1 [Example 9, (S)—N-Cycloheptyl-N-(2-(2-(8-hydroxy-2-oxo-1,2-dihydroquinolin-5-yl)ethylamino)ethyl)-3-(2-phenylpropylamino)propanamide bis(trifluoroacetate)]	–	–	0.91	39.8
Cl.O=C(CCOCCc1cccc(F)c1)N(CCNCCc1ccc(O)c2[nH]c(=O)ccc12)C1CCCCC1 [Example 72, N-Cyclohexyl-3-(3-fluorophenethoxy)-N-(2-(2-(8-hydroxy-2-oxo-1,2-dihydroquinolin-5-yl)ethylamino)ethyl)propanamide hydrochloride]	501	3980	0.92	5.01
Cl.O=C(CCOCCc1ccc(F)cc1)N(CCNCCc1ccc(O)c2[nH]c(=O)ccc12)C1CCCCC1 [Example 71, N-Cyclohexyl-3-(4-fluorophenethoxy)-N-(2-(2-(8-hydroxy-2-oxo-1,2-dihydroquinolin-5-yl)ethylamino)ethyl)propanamide hydrochloride]	631	3980	0.85	10
O=C(CCNCCc1cccc(F)c1)N(CCNCCc1ccc(O)c2[nH]c(=O)ccc12)C1CCCCCC1 [Example 5, N-Cycloheptyl-3-(3-fluorophenethylamino)-N-(2-(2-(8-hydroxy-2-oxo-1,2-dihydroquinolin-5-yl)ethylamino)ethyl)propanamide bis(trifluoroacetate)]	158	501	0.82	7.94
O=C(CCOCCc1cc(F)cc(F)c1)N(CCNCCc1ccc(O)c2[nH]c(=O)ccc12)C1CCCCC1 [Example 78, N-Cyclohexyl-3-(3,5-difluorophenethoxy)-N-(2-(2-(8-hydroxy-2-oxo-1,2-dihydroquinolin-5-yl)ethylamino)ethyl)propanamide trifluoroacetate]	794	–	1.01	20
O=C1COc2c(CCNCCN(C(=O)CCNCCc3ccccc3Cl)C3CCCCC3)ccc(O)c2N1 [Example 28, 3-(2-Chlorophenethylamino)-N-cyclohexyl-N-(2-(2-(5-hydroxy-3-oxo-3,4-dihydro-2H-benzo[b][1,4]oxazin-8-yl)ethylamino)ethyl)propanamide bis(trifluoroacetate)]	39.8	79.4	0.86	2.51
Cl.O=C(CCOCCc1ccccc1F)N(CCNCCc1ccc(O)c2[nH]c(=O)ccc12)C1CCCCC1 [Example 73, N-Cyclohexyl-3-(2-fluorophenethoxy)-N-(2-(2-(8-hydroxy-2-oxo-1,2-dihydroquinolin-5-yl)ethylamino)ethyl)propanamide hydrochloride]	631	5010	0.94	3.98
O=C(CCNCCc1cccc(F)c1)N(CCNCCc1ccc(O)c2[nH]c(=O)ccc12)C1CCCCC1 [Example 19, N-Cyclohexyl-3-(3-fluorophenethylamino)-N-(2-(2-(8-hydroxy-2-oxo-1,2-dihydroquinolin-5-yl)ethylamino)ethyl)propanamide]	200	1260	0.87	10
CCCCN(CCNCCc1ccc(O)c2[nH]c(=O)ccc12)C(=O)CCOCCc1ccccc1 [Example 1, N-Butyl-N-(2-(2-(8-hydroxy-2-oxo-1,2-dihydroquinolin-5-yl)ethylamino)ethyl)-3-phenethoxypropanamide hydrochloride]	–	–	0.9	398
O=C(CCNCCc1ccccc1)N(CCNCCc1ccc(O)c2[nH]c(=O)ccc12)C1CCCCCC1 [Example 7, N-Cycloheptyl-N-(2-(2-(8-hydroxy-2-oxo-1,2-dihydroquinolin-5-yl)ethylamino)ethyl)-3-(phenethylamino)propanamide bis(trifluoroacetate)]	126	316	0.76	10
O=C1Cc2c(CCNCCN(C(=O)CCNCCc3cccc(F)c3)C3CCCCC3)ccc(O)c2N1 [Example 20, N-Cyclohexyl-3-(3-fluorophenethylamino)-N-(2-(2-(7-hydroxy-2-oxoindolin-4-yl)ethylamino)ethyl)propanamide dihydrobromide]	158	398	0.78	7.94
